The values below come from the supplement of paper PMC6045584.

± gives the standard deviation of the averaged measurements.

Compound in assay [1]: C[C@@H](Oc1cc(-c2cnn(C3CCNCC3)c2)cnc1N)c1c(Cl)ccc(F)c1Cl
The assay is described as follows: surviving fraction relative to DMSO-only wells; higher = less growth inhibition. As to conditions: exposure time: 5 days. The essentials: (§1)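 Surviving fraction was calculated by normalising CellTiter-Glo luminescence to the median of DMSO-only wells. Tumour cell lines in log phase were seeded in 384-well plates at 250–500 cells per well, and 24 hours later were exposed continuously for five days to inhibitors at 0.5, 1, 5, 10, 50, 100, 500 and 1000 nM.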

Compound in another assay: O=C(c1cc(Cc2n[nH]c(=O)c3ccccc23)ccc1F)N1CCN(C(=O)C2CC2)CC1 [OLAPARIB]
The description is as above. As to conditions: exposure time: 5 days. The essentials:
as §1

As for ASKA SYNOVIAL, the surviving fraction in assay [1] (0.5 nM) amounted to 0.873 ± 0.092; in assay [1] (1 nM), 0.773 ± 0.061; in assay [1] (5 nM), 0.78 ± 0.035; in assay [1] (10 nM) it was 0.69 ± 0.044; in assay [1] (50 nM), 0.527 ± 0.028; in assay [1] (100 nM) it was 0.415 ± 0.021. Besides, the surviving fraction is 0.246 ± 0.014 in assay [1] (500 nM); 0.249 ± 0.014 in assay [1] (1000 nM); 1.16 ± 0.13 with OLAPARIB (0.5 nM); 1.13 ± 0.043 with OLAPARIB (1 nM); 1.14 ± 0.096 in the assay with OLAPARIB (5 nM); 1.06 ± 0.09 in the assay with OLAPARIB (10 nM). The surviving fraction in the assay with OLAPARIB (50 nM) turned out to be 0.936 ± 0.051; in the assay with OLAPARIB (100 nM), 0.921 ± 0.044; in the assay with OLAPARIB (500 nM), 0.772 ± 0.056; in the assay with OLAPARIB (1000 nM), 0.655 ± 0.071.
Consider HSSYII SYNOVIAL, for which the surviving fraction in assay [1] (0.5 nM) was 0.85 ± 0.056; in assay [1] (1 nM), 0.882 ± 0.039; in assay [1] (5 nM), 0.81 ± 0.03; in assay [1] (10 nM), 0.861 ± 0.036; in assay [1] (50 nM), 0.848 ± 0.021; in assay [1] (100 nM) it was 0.794 ± 0.035. Moreover, the surviving fraction was 0.261 ± 0.0051 in assay [1] (500 nM); 0.122 ± 0.01 in assay [1] (1000 nM); 0.941 ± 0.039 with OLAPARIB (0.5 nM); 0.949 ± 0.027 in the assay with OLAPARIB (1 nM); 0.882 ± 0.076 in the assay with OLAPARIB (5 nM); 0.86 ± 0.013 with OLAPARIB (10 nM). The surviving fraction with OLAPARIB (50 nM) amounted to 0.827 ± 0.022; with OLAPARIB (100 nM) it was 0.769 ± 0.055; with OLAPARIB (500 nM) it was 0.6097 ± 0.0048; with OLAPARIB (1000 nM), 0.484 ± 0.046.
Turning to RDES SOFT TISSUE, the surviving fraction was found to be 0.735 ± 0.13 in assay [1] (0.5 nM); 0.716 ± 0.093 in assay [1] (1 nM); 0.832 ± 0.028 in assay [1] (5 nM); 0.69 ± 0.075 in assay [1] (10 nM); 1.02 ± 0.19 in assay [1] (50 nM); 0.926 ± 0.17 in assay [1] (100 nM). Also, the surviving fraction in assay [1] (500 nM) was 1.26 ± 0.02; in assay [1] (1000 nM) it was 0.127 ± 0.023; with OLAPARIB (0.5 nM), 1.16 ± 0.19; with OLAPARIB (1 nM), 1.11 ± 0.23; in the assay with OLAPARIB (5 nM), 1.14 ± 0.15; with OLAPARIB (10 nM), 0.966 ± 0.14. Moreover, the surviving fraction with OLAPARIB (50 nM) was found to be 0.85 ± 0.14; in the assay with OLAPARIB (100 nM) it was 0.8 ± 0.093; with OLAPARIB (500 nM), 1.01 ± 0.065; with OLAPARIB (1000 nM), 1.41 ± 0.088.
For the test system “JURKAT HAEMATOPOIETIC AND LYMPHOID TISSUE”, the surviving fraction in assay [1] (0.5 nM) came to 0.993 ± 0.024; in assay [1] (1 nM) it was 0.993 ± 0.029; in assay [1] (10 nM), 0.98 ± 0.013; in assay [1] (50 nM), 0.984 ± 0.021; in assay [1] (100 nM), 0.943 ± 0.019; in assay [1] (500 nM), 0.235 ± 0.013. Further, the surviving fraction stood at 0.195 ± 0.013 in assay [1] (1000 nM); 1.1 ± 0.022 with OLAPARIB (0.5 nM); 1.12 ± 0.03 with OLAPARIB (1 nM); 1.08 ± 0.03 in the assay with OLAPARIB (5 nM); 1.07 ± 0.014 with OLAPARIB (10 nM); 1.038 ± 0.0047 in the assay with OLAPARIB (50 nM). For the same test system, the surviving fraction in the assay with OLAPARIB (100 nM) is 0.994 ± 0.024; with OLAPARIB (500 nM), 1 ± 0.019; in the assay with OLAPARIB (1000 nM), 0.847 ± 0.029.
As to JIMT1 BREAST, the surviving fraction in assay [1] (0.5 nM) turned out to be 0.869 ± 0.035; in assay [1] (1 nM) it was 0.834 ± 0.024; in assay [1] (5 nM) it was 0.893 ± 0.04; in assay [1] (10 nM), 0.862 ± 0.033; in assay [1] (50 nM), 0.971 ± 0.045; in assay [1] (100 nM), 0.959 ± 0.038. In addition, the surviving fraction was 0.634 ± 0.075 in assay [1] (500 nM); 0.517 ± 0.042 in assay [1] (1000 nM); 0.917 ± 0.035 in the assay with OLAPARIB (0.5 nM); 0.911 ± 0.024 in the assay with OLAPARIB (1 nM); 0.9352 ± 0.0078 in the assay with OLAPARIB (5 nM); 0.907 ± 0.023 with OLAPARIB (10 nM). In addition, the surviving fraction came out at 0.934 ± 0.026 with OLAPARIB (50 nM), 0.9217 ± 0.0036 with OLAPARIB (100 nM), 0.9207 ± 0.0084 with OLAPARIB (500 nM) and 0.846 ± 0.025 with OLAPARIB (1000 nM).
For 22RV1 PROSTATE, the surviving fraction in assay [1] (0.5 nM) amounted to 0.954 ± 0.079; in assay [1] (1 nM) it was 1.01 ± 0.02; in assay [1] (5 nM), 0.958 ± 0.022; in assay [1] (10 nM) it was 0.944 ± 0.033; in assay [1] (500 nM), 0.59 ± 0.078; in assay [1] (1000 nM), 0.406 ± 0.027. For the same test system, the surviving fraction with OLAPARIB (0.5 nM) was determined as 1.08 ± 0.029; with OLAPARIB (1 nM), 1.04 ± 0.044; in the assay with OLAPARIB (5 nM), 1.05 ± 0.036; in the assay with OLAPARIB (10 nM) it was 1.01 ± 0.09; with OLAPARIB (50 nM) it was 1.06 ± 0.031; with OLAPARIB (100 nM), 1 ± 0.05. Besides, the surviving fraction in the assay with OLAPARIB (500 nM) came to 1.04 ± 0.049; in the assay with OLAPARIB (1000 nM), 0.997 ± 0.051.
In the case of NY BONE, the surviving fraction in assay [1] (0.5 nM) is 0.948 ± 0.02; in assay [1] (1 nM) it was 0.9253 ± 0.0076; in assay [1] (5 nM) it was 0.959 ± 0.0089; in assay [1] (10 nM), 0.9633 ± 0.0086; in assay [1] (50 nM), 0.9303 ± 0.0083; in assay [1] (100 nM) it was 0.885 ± 0.022. The surviving fraction in assay [1] (500 nM) came out at 0.701 ± 0.03; in assay [1] (1000 nM), 0.524 ± 0.018; with OLAPARIB (0.5 nM), 1.01 ± 0.016; with OLAPARIB (1 nM), 1.03 ± 0.013; with OLAPARIB (5 nM), 1.05 ± 0.039; with OLAPARIB (10 nM), 1.05 ± 0.061. Also, the surviving fraction with OLAPARIB (50 nM) came to 1.09 ± 0.031; with OLAPARIB (100 nM), 1.06 ± 0.055; in the assay with OLAPARIB (500 nM) it was 0.95 ± 0.022; with OLAPARIB (1000 nM), 0.849 ± 0.04.
As for CHLA90 AUTONOMIC GANGLIA, the surviving fraction in assay [1] (0.5 nM) was 0.996 ± 0.039; in assay [1] (5 nM), 0.855 ± 0.042; in assay [1] (50 nM), 0.812 ± 0.037; in assay [1] (100 nM) it was 0.785 ± 0.019; in assay [1] (500 nM), 0.479 ± 0.029; in assay [1] (1000 nM), 0.328 ± 0.023. The surviving fraction in the assay with OLAPARIB (0.5 nM) was found to be 1.02 ± 0.065; with OLAPARIB (1 nM) it was 1.07 ± 0.037; with OLAPARIB (5 nM) it was 1.01 ± 0.035; in the assay with OLAPARIB (10 nM), 0.993 ± 0.048; in the assay with OLAPARIB (50 nM), 0.95 ± 0.052; with OLAPARIB (100 nM), 1.01 ± 0.078. The surviving fraction in the assay with OLAPARIB (500 nM) amounted to 0.963 ± 0.061; with OLAPARIB (1000 nM) it was 0.966 ± 0.059.
Take 143B BONE: the surviving fraction in assay [1] (0.5 nM) amounted to 0.997 ± 0.012; in assay [1] (10 nM) it was 0.997 ± 0.012; in assay [1] (100 nM) it was 1.002 ± 0.0092; in assay [1] (500 nM), 0.811 ± 0.039; in assay [1] (1000 nM), 0.643 ± 0.061; with OLAPARIB (0.5 nM), 1.025 ± 0.0014. For the same test system, the surviving fraction with OLAPARIB (1 nM) worked out at 1.044 ± 0.0092; in the assay with OLAPARIB (5 nM), 1.04 ± 0.019; with OLAPARIB (10 nM), 1 ± 0.025; with OLAPARIB (50 nM), 1.05 ± 0.027; with OLAPARIB (100 nM), 1.01 ± 0.017; with OLAPARIB (500 nM), 1.02 ± 0.023. For the same test system, the surviving fraction in the assay with OLAPARIB (1000 nM) was 0.9915 ± 0.005.
